Experimental findings from US10071133B2, “Method for destroying exosomes, kit for destroying exosomes, and method for isolating exosomes derived from normal cells” (priority 2015, dated 2018) are described below.

Common to all, as to format: biochemical
For assay [1], the system named is exosome fraction B derived from human breast cancer cells versus exosome fraction derived from normal human serum. In words: Selectivity: miR-16 ratio, breast cancer exosomes versus normal human serum exosomes (Formula 2). As to conditions: Formula 2, cancer/normal human serum exosomes; magainin 2 100 μM, 37° C., 24 hours. The method, then: (§1) A cell suspension of cell line MDA-MB-231-luc-D3H2LN derived from human breast cancer (=MM231-luc-D3H2LN, provided by the National Cancer Center Research Institute) was seeded in a dish containing RPMI 1640 medium (manufactured by Thermo Fisher Scientific Inc.) containing 10% fetal bovine serum. Subsequently, the cell line was grown at 37° C. under the condition that CO2 concentration was set to 5 volume % using a CO2 incubator, and then the medium was replaced with Advanced RPMI 1640 medium (manufactured by Thermo Fisher Scientific Inc.), followed by culturing for 48 hours, and therefore the culture solution containing exosomes was obtained. This culture solution was centrifuged at 2,000 G for 10 minutes to remove the precipitate, followed by centrifugation at 110,000 G for 70 minutes to precipitate the exosomes, and therefore an exosome fraction B was recovered. The recovered exosome fraction B was suspended in a phosphate buffered saline (PBS) and then stored at 4° C. Storage samples were lightly suspended with a vortex mixer (vibration mixer) before use.
Storage samples were lightly suspended with a vortex mixer (vibration mixer) before use. […]

Assay [2] deals with exosome derived from human prostate cancer cells (PC3ML). Kind of assay: Extraction of microRNA (miR-21) from exosome derived from prostate cancer cells, real-time PCR. The following applies: 100 μM peptide, 1×10^11 particles/mL PC3ML exosomes, 0.4 U/μL RNase inhibitor, 37° C., 24 hours; without peptide 3×10^−14M. Here is the method:
A cell suspension of cell line PC3ML derived from human prostate cancer cells (provided by the National Cancer Center Research Institute) was seeded in a dish containing RPMI 1640 medium (manufactured by Thermo Fisher Scientific Inc.) containing 10% fetal bovine serum. Subsequently, the cell line was grown at 37° C. under the condition that CO2 concentration was set to 5 volume % using a CO2 incubator, and then the medium was replaced with Advanced RPMI 1640 medium (manufactured by Thermo Fisher Scientific Inc.), followed by culturing for 48 hours, and the culture solution containing exosomes was obtained. This culture solution was centrifuged at 2,000 G for 10 minutes to remove the precipitate, followed by centrifugation at 110,000 G for 70 minutes to precipitate the exosomes, and therefore an exosome fraction was recovered. The recovered exosome fraction was suspended in a phosphate buffered saline (PBS) and then stored at 4° C. Storage samples were lightly suspended with a vortex mixer (vibration mixer) before use. […]
The reverse transcription PCR solution obtained by the above described method was processed and by comparing the number of cycles on a calibration curve of microRNA using Taqman Assay primer (manufactured by Thermo Fisher Scientific Inc., Taqman microRNA Assays, Taqman Assay primer, and hsa-mir-21 or hsa-mir-16) and Real-Time PCR Master Mixes (manufactured by Thermo Fisher Scientific Inc., TaqMan Universal PCR Master Mix II, w/UNG) with StepOnePlus Real-Time PCR System, MiR-21 or miR-16 was quantified. […]
The amount of microRNA (miR-21) contained in the recovered eluate was quantified by the above described real-time PCR method. […] In addition, the destructive activity of the antimicrobial peptide used was evaluated on the basis of the following criteria based on the quantitative result of the concentration of microRNA (miR-21) performed by the real-time PCR method. […]

In assay [3] the test system is exosome fraction B derived from human breast cancer cells versus exosome fraction derived from human mammary gland cells (MCF-10A, normal cells). In words: Selectivity: miR-16 ratio, breast cancer exosomes versus mammary gland normal cell exosomes (Formula 1). Here is the method: as §1
A cell suspension of cell line MCF 10A derived from human mammary epithelial cells (provided by the National Cancer Center Research Institute) was seeded in a dish containing Mammary Epithelium Cell Basal Medium (manufactured by Lonza). Subsequently, the cell line was grown at 37° C. under the condition that CO2 concentration was set to 5 volume % using a CO2 incubator, and then the medium was replaced with a fresh medium, followed by culturing for 48 hours, and the culture solution containing exosomes was obtained. This culture solution was centrifuged at 2,000 G for 10 minutes to remove the precipitate, followed by centrifugation at 110,000 G for 70 minutes to precipitate the exosomes, and an exosome fraction was recovered. The recovered exosome fraction was suspended in a phosphate buffered saline (PBS) and then stored at 4° C. Storage samples were lightly suspended with a vortex mixer (vibration mixer) before use.
MicroRNA (miR-21 or miR-16) in the reaction solution was subjected to reverse transcription PCR using reverse transcription primers (manufactured by Thermo Fisher Scientific Inc., Taqman microRNA Assays, RT primers, and hsa-mir-21 or hsa-mir-16) and a reverse transcriptase (manufactured by Thermo Fisher Scientific Inc., Taqman microRNA RT kit).
The reverse transcription PCR solution obtained by the above described method was processed and by comparing the number of cycles on a calibration curve of microRNA using Taqman Assay primer (manufactured by Thermo Fisher Scientific Inc., Taqman microRNA Assays, Taqman Assay primer, and hsa-mir-21 or hsa-mir-16) and Real-Time PCR Master Mixes (manufactured by Thermo Fisher Scientific Inc., TaqMan Universal PCR Master Mix II, w/UNG) with StepOnePlus Real-Time PCR System, MiR-21 or miR-16 was quantified. The calibration curve of microRNA was created using synthetic miR-21 (manufactured by Sigma-Aldrich Co. LLC.) or synthetic miR-16 (manufactured by Sigma-Aldrich Co. LLC.).
10 μL of the exosome fraction was prepared such that PBS contains 1×10^11 particles/mL of the exosome fraction B derived from human breast cancer cells, various antimicrobial peptides shown in the following Table 4 adjusted to 100 μM, and 0.4 U/μL of RNase inhibitor (manufactured by Toyobo Co., Ltd.), followed by incubation by being left to stand at 37° C. for 24 hours.
Thereafter, the eluted MicroRNA (miR-16) was purified and recovered from the incubated solution by the same method as the above described method for extraction from the incubated solution of Examples 10 and 11 above and Comparative Examples 6 and 7 above. […]

In the case of Magainin 2, the mir-16 ratio is 56.6 in assay [1] and 26 in assay [3] (Formula 1, cancer/normal (MCF-10A), 100 μM peptide, 37° C., 24 hours). Also, in assay [2], the “Destructive activity (concentration of microRNA miR-21 in eluate)” value is given as “B (the concentration of microRNA is 5×10^−14M to 10×10^−14M)”. Besides, the Selectivity result in assay [3] (from miR-16 ratio versus Comparative Example 8, breast cancer vs MCF-10A exosomes) is listed as “B (evaluated as “B” in a case where the calculated miR-16 value was higher than the miR-16 ratio of Comparative Example 8)”.
